Laboratory results: publication PMC5218480 (PLoS ONE, 2017)

Tested on: MV-4-11 cells
Experiment: Gene expression microarray analysis (Affymetrix PrimeView) and GSEA
Type: cell-based, human
Design: RFU PODN (11730768_x_at) / Fold change /veh PODN (11730768_x_at) / RFU LINC00158 (11744669_a_at) / Fold change /veh LINC00158 (11744669_a_at) / RFU DUSP10 (11751237_a_at) / Fold change /veh DUSP10 (11751237_a_at) / RFU ID3 (11757404_x_at) / Fold change /veh ID3 (11757404_x_at) / RFU PLEKHG5 (11737974_s_at) / Fold change /veh PLEKHG5 (11737974_s_at) / RFU LRRC4B (11730491_at) / Fold change /veh LRRC4B (11730491_at) / RFU GIMAP4 (11747438_a_at) / Fold change /veh GIMAP4 (11747438_a_at) / RFU KRT8 (11758183_x_at) / Fold change /veh KRT8 (11758183_x_at) / RFU CNN1 (11734310_a_at) / Fold change /veh CNN1 (11734310_a_at) / RFU VPS37D (11726825_at) / Fold change /veh VPS37D (11726825_at) / RFU C10orf10 (11716522_x_at) / Fold change /veh C10orf10 (11716522_x_at) / RFU KIR2DL2 /// KIR2DL4 /// KIR2DL5A /// KIR2DL5B /// KIR2DS1 /// KIR2DS2 /// KIR2DS3 /// KIR2DS4 /// KIR3DL3 /// KIR3DL3 /// KIR3DS1 (11738374_at) / Fold change /veh KIR2DL2 /// KIR2DL4 /// KIR2DL5A /// KIR2DL5B /// KIR2DS1 /// KIR2DS2 /// KIR2DS3 /// KIR2DS4 /// KIR3DL3 /// KIR3DL3 /// KIR3DS1 (11738374_at) / RFU C1QL1 (11718748_at) / Fold change /veh C1QL1 (11718748_at) / RFU TMPRSS4 (11747572_a_at) / Fold change /veh TMPRSS4 (11747572_a_at) / RFU HAMP (11756126_x_at) / Fold change /veh HAMP (11756126_x_at) / RFU RNFT2 (11725882_a_at) / Fold change /veh RNFT2 (11725882_a_at) / RFU NR4A2 (11747474_a_at) / Fold change /veh NR4A2 (11747474_a_at) / RFU ABCC12 (11746883_a_at) / Fold change /veh ABCC12 (11746883_a_at) / RFU TMEM136 (11760407_x_at) / Fold change /veh TMEM136 (11760407_x_at) / RFU CLDN22 /// WWC2 (11732394_at) / Fold change /veh CLDN22 /// WWC2 (11732394_at) / RFU HLA-DPB1 (11760878_x_at) / Fold change /veh HLA-DPB1 (11760878_x_at) / RFU SPINT1 (11716480_a_at) / Fold change /veh SPINT1 (11716480_a_at) / RFU GAP43 (11754022_s_at) / Fold change /veh GAP43 (11754022_s_at) / RFU A4GNT (11735810_at) / Fold change /veh A4GNT (11735810_at) / RFU PRB3 (11715151_x_at) / Fold change /veh PRB3 (11715151_x_at) / RFU TUBB4B (11761932_at) / Fold change /veh TUBB4B (11761932_at) / RFU CAPN14 (11732068_a_at) / Fold change /veh CAPN14 (11732068_a_at) / RFU TMCC2 (11721928_a_at) / Fold change /veh TMCC2 (11721928_a_at) / RFU IRGQ (11745062_a_at) / Fold change /veh IRGQ (11745062_a_at) / RFU FAM174B (11720279_a_at) / Fold change /veh FAM174B (11720279_a_at) / RFU TMPRSS4 (11748680_a_at) / Fold change /veh TMPRSS4 (11748680_a_at) / RFU FAM212B (11763350_a_at) / Fold change /veh FAM212B (11763350_a_at) / RFU PLEKHG5 (11743358_a_at) / Fold change /veh PLEKHG5 (11743358_a_at) / RFU ZSCAN30 (11745921_a_at) / Fold change /veh ZSCAN30 (11745921_a_at) / RFU CMKLR1 (11741424_a_at) / Fold change /veh CMKLR1 (11741424_a_at) / RFU LOC101060620 /// MAPK8IP1 (11723275_at) / Fold change /veh LOC101060620 /// MAPK8IP1 (11723275_at) / RFU SPTSSB (11747773_x_at) / Fold change /veh SPTSSB (11747773_x_at) / RFU PRSS12 (11739890_at) / Fold change /veh PRSS12 (11739890_at) / RFU BIN1 (11741810_x_at) / Fold change /veh BIN1 (11741810_x_at) / RFU WNT11 (11732464_a_at) / Fold change /veh WNT11 (11732464_a_at) / RFU C10orf10 (11716521_a_at) / Fold change /veh C10orf10 (11716521_a_at) / RFU C5orf56 (11738089_at) / Fold change /veh C5orf56 (11738089_at) / RFU CYB561 (11721691_x_at) / Fold change /veh CYB561 (11721691_x_at) / RFU ANKRD19P (11752326_a_at) / Fold change /veh ANKRD19P (11752326_a_at) / RFU OR2T12 /// OR2T33 /// OR2T8 (11738714_s_at) / Fold change /veh OR2T12 /// OR2T33 /// OR2T8 (11738714_s_at) / RFU VCAN (11748164_a_at) / Fold change /veh VCAN (11748164_a_at) / RFU JSRP1 (11732532_at) / Fold change /veh JSRP1 (11732532_at) / RFU KRTAP10-11 (11738290_x_at) / Fold change /veh KRTAP10-11 (11738290_x_at) / RFU MYO3A (11730013_a_at) / Fold change /veh MYO3A (11730013_a_at) / RFU EBF3 (11725865_a_at) / Fold change /veh EBF3 (11725865_a_at) / RFU CAMK2N1 (11719241_x_at) / Fold change /veh CAMK2N1 (11719241_x_at) / RFU C5orf56 (11738088_a_at) / Fold change /veh C5orf56 (11738088_a_at) / RFU OLFML3 (11715873_a_at) / Fold change /veh OLFML3 (11715873_a_at) / RFU LOC100653217 /// NTM (11731650_a_at) / Fold change /veh LOC100653217 /// NTM (11731650_a_at) / RFU MAPK11 (11762145_a_at) / Fold change /veh MAPK11 (11762145_a_at) / RFU FIZ1 (11724087_x_at) / Fold change /veh FIZ1 (11724087_x_at) / RFU OASL (11726364_x_at) / Fold change /veh OASL (11726364_x_at) / RFU SOX15 (11748057_x_at) / Fold change /veh SOX15 (11748057_x_at) / RFU CD79A (11719716_a_at) / Fold change /veh CD79A (11719716_a_at) / RFU HIST1H1D (11736915_at) / Fold change /veh HIST1H1D (11736915_at) / RFU CASKIN2 (11723855_a_at) / Fold change /veh CASKIN2 (11723855_a_at) / RFU LOC730098 (11760151_x_at) / Fold change /veh LOC730098 (11760151_x_at) / RFU OR4N2 (11742367_at) / Fold change /veh OR4N2 (11742367_at) / RFU PRRT2 (11749266_a_at) / Fold change /veh PRRT2 (11749266_a_at) / RFU SNX32 (11753110_a_at) / Fold change /veh SNX32 (11753110_a_at) / RFU CDHR5 (11726645_a_at) / Fold change /veh CDHR5 (11726645_a_at) / RFU RCAN1 (11760418_a_at) / Fold change /veh RCAN1 (11760418_a_at) / RFU FAM167A (11723789_a_at) / Fold change /veh FAM167A (11723789_a_at) / RFU FAM26E (11764081_at) / Fold change /veh FAM26E (11764081_at) / RFU ISYNA1 (11749810_s_at) / Fold change /veh ISYNA1 (11749810_s_at) / RFU ACY1 (11761880_at) / Fold change /veh ACY1 (11761880_at) / RFU 11764098_at / Fold change /veh 11764098_at / RFU SAMD14 (11745864_x_at) / Fold change /veh SAMD14 (11745864_x_at) / RFU NPB (11741838_a_at) / Fold change /veh NPB (11741838_a_at) / RFU TMPRSS6 (11731388_a_at) / Fold change /veh TMPRSS6 (11731388_a_at) / RFU KRTAP10-2 (11738614_at) / Fold change /veh KRTAP10-2 (11738614_at) / RFU ARHGAP8 /// PRR5-ARHGAP8 (11727945_x_at) / Fold change /veh ARHGAP8 /// PRR5-ARHGAP8 (11727945_x_at) / RFU KRTAP5-7 /// NADSYN1 (11734609_at) / Fold change /veh KRTAP5-7 /// NADSYN1 (11734609_at) / RFU RASL12 (11751679_a_at) / Fold change /veh RASL12 (11751679_a_at) / RFU CDKN2B (11736163_a_at) / Fold change /veh CDKN2B (11736163_a_at) / RFU PRF1 (11729649_at) / Fold change /veh PRF1 (11729649_at) / RFU, ZNF638 /// ZNF638-IT1 / Fold change vs veh, ZNF638 /// ZNF638-IT1 / RFU, PANK3 / Fold change vs veh, PANK3 / RFU, SH3YL1 / Fold change vs veh, SH3YL1 / RFU, ZEB2 / Fold change vs veh, ZEB2 / RFU, NRIP1 / Fold change vs veh, NRIP1 / RFU, PTTG1IP / Fold change vs veh, PTTG1IP / RFU, CAPN2 / Fold change vs veh, CAPN2 / RFU, MED14 / Fold change vs veh, MED14 / RFU, SNORA58 / Fold change vs veh, SNORA58 / RFU, C1orf63 / Fold change vs veh, C1orf63 / RFU, LRRFIP1 / Fold change vs veh, LRRFIP1 / RFU, NDUFAF7 / Fold change vs veh, NDUFAF7 / RFU, SLC12A2 / Fold change vs veh, SLC12A2 / RFU, IBTK / Fold change vs veh, IBTK / RFU, ESF1 / Fold change vs veh, ESF1 / Fold change vs veh, TMEM50B / RFU, TAOK1 / Fold change vs veh, TAOK1 / RFU, ACBD3 / Fold change vs veh, ACBD3 / RFU, TMA16 / Fold change vs veh, TMA16 / RFU, RWDD3 / Fold change vs veh, RWDD3 / RFU, BCAT1 / Fold change vs veh, BCAT1 / RFU, EDEM3 / Fold change vs veh, EDEM3 / RFU, TMEM33 / Fold change vs veh, TMEM33 / RFU, WDR75 / Fold change vs veh, WDR75 / RFU, AHCTF1 / Fold change vs veh, AHCTF1 / RFU, TFRC / Fold change vs veh, TFRC / RFU, ZDHHC17 / Fold change vs veh, ZDHHC17 / RFU, NOM1 / Fold change vs veh, NOM1 / RFU, ARL8B / Fold change vs veh, ARL8B / RFU, ZBTB11 / Fold change vs veh, ZBTB11 / RFU, TAMM41 / Fold change vs veh, TAMM41 / RFU, KIAA1704 /// LOC100996395 / Fold change vs veh, KIAA1704 /// LOC100996395 / RFU, ING1 / Fold change vs veh, ING1 / RFU, TRMT61B / Fold change vs veh, TRMT61B / RFU, FUBP3 / Fold change vs veh, FUBP3 / RFU, TP53 / Fold change vs veh, TP53 / RFU, TNKS2 / Fold change vs veh, TNKS2 / RFU, ZFP14 / Fold change vs veh, ZFP14 / RFU, ACTR2 / Fold change vs veh, ACTR2 / RFU, PPP3R1 / Fold change vs veh, PPP3R1 / RFU, PIK3R1 / Fold change vs veh, PIK3R1 / RFU, HNRNPA1 / Fold change vs veh, HNRNPA1 / RFU, RNF170 / Fold change vs veh, RNF170 / RFU, ZNF28 / Fold change vs veh, ZNF28 / RFU, RNGTT / Fold change vs veh, RNGTT / RFU, OGT / Fold change vs veh, OGT / RFU, BRD1 / Fold change vs veh, BRD1 / RFU, MARS / Fold change vs veh, MARS / RFU, ZNF655 / Fold change vs veh, ZNF655 / RFU, FAHD1 / Fold change vs veh, FAHD1 / RFU, BDP1 / Fold change vs veh, BDP1 / RFU, LRRCC1 / Fold change vs veh, LRRCC1 / RFU, ARID1A / Fold change vs veh, ARID1A / RFU, ZNF146 / Fold change vs veh, ZNF146 / RFU, ZNF330 / Fold change vs veh, ZNF330 / RFU, GPN3 / Fold change vs veh, GPN3 / RFU, C9orf123 / Fold change vs veh, C9orf123 / RFU, N4BP2L2 / Fold change vs veh, N4BP2L2 / RFU, ARFIP1 / Fold change vs veh, ARFIP1 / RFU, FAM179B / Fold change vs veh, FAM179B / RFU, BCL10 / Fold change vs veh, BCL10 / RFU, UHRF1BP1L / Fold change vs veh, UHRF1BP1L / RFU, BET1 / Fold change vs veh, BET1 / RFU, CNOT2 / Fold change vs veh, CNOT2 / RFU, ZNF268 / Fold change vs veh, ZNF268 / Fold change vs veh, ZNF507 / RFU, DGCR2 / Fold change vs veh, DGCR2 / RFU, WDSUB1 / Fold change vs veh, WDSUB1 / Fold change vs veh, HSP90B1 /// MIR3652 / RFU, ADSS / Fold change vs veh, ADSS / RFU, GK / Fold change vs veh, GK / RFU, ZNF148 / Fold change vs veh, ZNF148 / RFU, TAF9 / Fold change vs veh, TAF9 / RFU, SLC1A5 / Fold change vs veh, SLC1A5 / RFU, SLMO2 / Fold change vs veh, SLMO2 / RFU, ABCC4 / Fold change vs veh, ABCC4 / RFU, LOC101060439 /// RAP1B / Fold change vs veh, LOC101060439 /// RAP1B / RFU, RFX7 / Fold change vs veh, RFX7 / RFU, GTPBP10 / Fold change vs veh, GTPBP10 / RFU, CNEP1R1 / Fold change vs veh, CNEP1R1 / RFU, BIVM-ERCC5 /// ERCC5 / Fold change vs veh, BIVM-ERCC5 /// ERCC5 / RFU, ILF3 / Fold change vs veh, ILF3 / RFU 11762660_at / Fold change /veh 11762660_at / RFU VCAN (11757783_s_at) / Fold change /veh VCAN (11757783_s_at) / RFU DDX43 (11728927_at) / Fold change /veh DDX43 (11728927_at) / RFU KRT8 (11758188_x_at) / Fold change /veh KRT8 (11758188_x_at) / RFU NKD1 (11759106_at) / Fold change /veh NKD1 (11759106_at) / RFU SRD5A1 (11742802_a_at) / Fold change /veh SRD5A1 (11742802_a_at) / RFU TPSAB1 /// TPSB2 (11721975_s_at) / Fold change /veh TPSAB1 /// TPSB2 (11721975_s_at) / RFU GSTM3 (11746129_a_at) / Fold change /veh GSTM3 (11746129_a_at) / RFU IL23R (11737362_x_at) / Fold change /veh IL23R (11737362_x_at) / RFU TMEM51 (11727254_a_at) / Fold change /veh TMEM51 (11727254_a_at) / RFU PIWIL2 (11732686_x_at) / Fold change /veh PIWIL2 (11732686_x_at) / RFU ORM1 (11744905_x_at) / Fold change /veh ORM1 (11744905_x_at) / RFU CCDC152 (11743942_at) / Fold change /veh CCDC152 (11743942_at) / RFU ECM1 (11717891_a_at) / Fold change /veh ECM1 (11717891_a_at) / RFU IL23R (11748794_a_at) / Fold change /veh IL23R (11748794_a_at) / RFU TNFAIP8L3 (11732012_x_at) / Fold change /veh TNFAIP8L3 (11732012_x_at) / RFU MBOAT4 (11741988_at) / Fold change /veh MBOAT4 (11741988_at) / RFU 11764193_at / Fold change /veh 11764193_at / RFU TMEM53 (11763286_at) / Fold change /veh TMEM53 (11763286_at) / RFU MAGEB2 (11727129_at) / Fold change /veh MAGEB2 (11727129_at) / RFU TMEM200A (11744735_a_at) / Fold change /veh TMEM200A (11744735_a_at) / RFU CCDC152 (11751479_a_at) / Fold change /veh CCDC152 (11751479_a_at) / RFU FAM211A (11726209_a_at) / Fold change /veh FAM211A (11726209_a_at) / RFU RGS16 (11746705_a_at) / Fold change /veh RGS16 (11746705_a_at) / RFU VCAN (11755009_s_at) / Fold change /veh VCAN (11755009_s_at) / RFU RHOB (11743442_s_at) / Fold change /veh RHOB (11743442_s_at) / RFU RGS16 (11720943_a_at) / Fold change /veh RGS16 (11720943_a_at) / RFU RGS16 (11720944_at) / Fold change /veh RGS16 (11720944_at) / RFU, VPS4B / Fold change vs veh, VPS4B / RFU, CREB1 / Fold change vs veh, CREB1 / RFU, DNAJC13 / Fold change vs veh, DNAJC13 / RFU, GNAQ / Fold change vs veh, GNAQ / RFU, CDK5R1 / Fold change vs veh, CDK5R1 / RFU, ZRANB3 / Fold change vs veh, ZRANB3 / RFU, CUL4A / Fold change vs veh, CUL4A / RFU, CCNY / Fold change vs veh, CCNY / RFU, UFL1 / Fold change vs veh, UFL1 / RFU, COG3 / Fold change vs veh, COG3 / RFU, DIAPH2 / Fold change vs veh, DIAPH2 / RFU, SKA2 / Fold change vs veh, SKA2 / RFU, AFF3 / Fold change vs veh, AFF3 / RFU, LMF1 / Fold change vs veh, LMF1 / RFU, IPO11 / Fold change vs veh, IPO11 / RFU, DFFB / Fold change vs veh, DFFB / RFU, FOXP1 / Fold change vs veh, FOXP1 / RFU, CARD8 / Fold change vs veh, CARD8 / RFU, STRN3 / Fold change vs veh, STRN3 / RFU, ADK / Fold change vs veh, ADK / RFU, RASSF2 / Fold change vs veh, RASSF2 / RFU, WIPF1 / Fold change vs veh, WIPF1 / RFU, LARP1B / Fold change vs veh, LARP1B / RFU, RASA1 / Fold change vs veh, RASA1 / RFU, RB1 / Fold change vs veh, RB1 / RFU, PPFIA1 / Fold change vs veh, PPFIA1 / RFU, MAT2A / Fold change vs veh, MAT2A / RFU, CCT5 / Fold change vs veh, CCT5 / RFU, WDR92 / Fold change vs veh, WDR92 / RFU, CUX1 / Fold change vs veh, CUX1 / RFU, TTC7A / Fold change vs veh, TTC7A / RFU, TMEM135 / Fold change vs veh, TMEM135 / RFU, DEPTOR / Fold change vs veh, DEPTOR / RFU, CPM / Fold change vs veh, CPM / RFU, DNAJB6 / Fold change vs veh, DNAJB6 / RFU, CACNA2D3 / Fold change vs veh, CACNA2D3 / RFU, DTX4 / Fold change vs veh, DTX4 / RFU, TFCP2 / Fold change vs veh, TFCP2 / RFU, GMCL1 /// GMCL1P1 / Fold change vs veh, GMCL1 /// GMCL1P1 / RFU, AEBP2 / Fold change vs veh, AEBP2 / RFU, SNHG1 /// SNORD22 /// SNORD25 /// SNORD26 /// SNORD27 /// SNORD28 /// SNORD29 /// SNORD31 / Fold change vs veh, SNHG1 /// SNORD22 /// SNORD25 /// SNORD26 /// SNORD27 /// SNORD28 /// SNORD29 /// SNORD31 / Fold change (Aza/veh), C12orf56 (ProbeSet 11735607_a_at) / Fold change (ACY-1035/veh), C12orf56 (ProbeSet 11735607_a_at) / Fold change (Aza/veh), FGFR1OP (ProbeSet 11751329_s_at) / Fold change (ACY-1035/veh), FGFR1OP (ProbeSet 11751329_s_at) / Fold change (Aza/veh), VPS36 (ProbeSet 11739960_a_at) / Fold change (ACY-1035/veh), VPS36 (ProbeSet 11739960_a_at) / RFU SYPL1 (11715823_x_at) / Fold change /veh SYPL1 (11715823_x_at) / RFU IGFBP7 (11715501_s_at) / Fold change /veh IGFBP7 (11715501_s_at) / RFU REEP3 (11722064_at) / Fold change /veh REEP3 (11722064_at) / RFU IGLL1 (11728026_x_at) / Fold change /veh IGLL1 (11728026_x_at): dose or concentration left out as unconfirmed
Conditions: MV-4-11 cells, 48 hours

Nc1ccc(-c2cccs2)cc1NC(=O)c1ccc2c(c1)cc(C1CC1)n2CCN1CCOCC1 [ACY-1035]
Fold change /veh LINC00158 (11744669_a_at): 1.11
